Laboratory results taken from PubChem BioAssay (NCI).
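A five-concentration, 48-hour dose response in 96-well plates underlies each endpoint, interpolated linearly between surrounding concentrations. The concentration for full growth arrest is given as TGI.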

Assays:
Assay in all cases: DTP human tumour cell line panel, 48 h
U251 CNS = tested on: U251 CNS
HCC-2998 colon = tested on: HCC-2998 colon
TK-10 renal = tested on: TK-10 renal
HCT-116 colon = tested on: HCT-116 colon
PC-3 prostate = tested on: PC-3 prostate
HT29 colon = tested on: HT29 colon
HOP-92 NSCLC = tested on: HOP-92 NSCLC
EKVX NSCLC = tested on: EKVX NSCLC
SN12C renal = tested on: SN12C renal
COLO 205 colon = tested on: COLO 205 colon
T-47D breast = tested on: T-47D breast
ACHN renal = tested on: ACHN renal

Structure (SMILES)	TGI (U251 CNS) [µM]	TGI (HCC-2998 colon) [µM]	TGI (TK-10 renal) [µM]	TGI (HCT-116 colon) [µM]	TGI (PC-3 prostate) [µM]	TGI (HT29 colon) [µM]	TGI (HOP-92 NSCLC) [µM]	TGI (EKVX NSCLC) [µM]	TGI (SN12C renal) [µM]	TGI (COLO 205 colon) [µM]	TGI (T-47D breast) [µM]	TGI (ACHN renal) [µM]
CC(=O)N[C@@H](Cc1ccc(O)cn1)C(=O)NCc1cccc(F)c1	> 100	> 100	> 100	> 100	> 100	> 100	> 100	> 100	> 100	> 100	> 100	> 100
Cc1ccc(N=Nc2c(O)c3ccccc3[nH]c2=O)c(S(=O)(=O)N(C)C)c1	> 100	–	> 100	> 100	> 100	> 100	> 100	> 100	> 100	> 100	> 100	> 100
O=S(=O)(O)c1cc(Cl)c(O)c2ncc(Cl)cc12	> 100	> 100	–	> 100	> 100	> 100	> 100	> 100	> 100	> 100	> 100	> 100
CCOC(=O)c1cc2cc(Cc3ccc4[nH]c(C(=O)OCC)cc4c3)ccc2[nH]1	29.9	> 100	31.4	> 100	> 100	> 100	27.8	78.9	> 100	> 100	> 100	44
O=C1CC(NC(=O)C(F)(F)F)c2c(Br)sc(N3CCC(c4ccccc4)CC3)c21 (stereo unspecified)	25.5	> 100	97.7	> 100	> 100	> 100	41.1	> 100	> 100	> 100	55.4	> 100
c1ccc(COc2ccc(C[P+](c3ccccc3)(c3ccccc3)c3ccccc3)cc2)cc1	11.8	4.81	1.66	1.68	3.07	2.02	0.585	3.04	5.03	3.26	0.839	6.39
COc1ccc(-n2sc3ncc(-c4ccccc4)cc3c2=O)cc1	> 100	> 100	> 100	57.8	> 100	–	> 100	> 100	80.2	> 100	> 100	48.3
COC(=O)[C@]1(C)CCCn2c(=O)n(-c3ccccc3)c(=O)n21	> 100	> 100	> 100	> 100	> 100	> 100	> 100	> 100	> 100	> 100	> 100	> 100
O=C(C=P(c1ccccc1)(c1ccccc1)c1ccccc1)C12CC3CC(CC(C3)C1)C2	34	32.1	24.4	29.4	24	23.2	43.2	29.3	32.3	28.7	38.2	29.7
O=C(Cc1ccc(Cl)c(Cl)c1)NCCCN1CCN(CCCN2CCCCC2)CC1	32.5	9.92	32.3	32.9	40.7	29.9	24.8	39.3	39	29.8	44.4	60.2
CCOC(=O)CC(C)C(C#N)(OP1(=O)OC(c2ccccc2)C(C)N1C)c1ccccc1 (stereo unspecified)	> 100	> 100	> 100	> 100	> 100	> 100	> 100	> 100	> 100	36.6	> 100	> 100
O=[N+]([O-])/C(C(Cl)=C(Cl)Cl)=C1\Nc2ccccc2O1	> 100	> 100	> 100	> 100	> 100	> 100	62.4	> 100	> 100	> 100	> 100	> 100
COc1ccc(NC(=S)NN=C(C)c2cccc(C(C)=NNC(=S)Nc3ccc(OC)cc3)n2)cc1	> 100	> 100	> 100	> 100	> 100	> 100	> 100	> 100	> 100	> 100	> 100	> 100
C[N+]1(C)C2Cc3ccccc3C1Cc1ccccc12	> 100	> 100	> 100	> 100	> 100	> 100	> 100	> 100	> 100	> 100	> 100	> 100
CCOn1cc(C[C@@]2(O)C(=O)OC3[C@@H](O)CO[C@@]32O)c2ccccc21 (stereo partly specified)	> 100	–	> 100	> 100	> 100	> 100	> 100	> 100	> 100	> 100	> 100	> 100
COc1ccc(C2CC(c3cc4c(C)c(C(=O)c5ccccc5)oc4cc3O)=Nc3ccccc3S2)cc1OC (stereo unspecified)	> 100	> 100	> 100	> 100	> 100	> 100	> 73.7	> 100	> 100	> 100	> 85.8	> 100
CCOC(=O)C(NCc1ccccc1)(NC(=O)c1ccccc1)C(F)(F)F (stereo unspecified)	> 100	> 100	> 100	> 100	> 100	> 100	> 100	> 100	> 100	> 100	> 100	> 100
Fc1cccc(F)c1C1SCC2=Nc3ccccc3CN21 (stereo unspecified)	> 100	> 100	> 100	> 100	> 100	–	> 100	> 100	> 100	> 100	> 100	> 100
